Test results taken from patent US20230220063A1, “IL-1BETA BINDING ANTIBODIES FOR USE IN TREATING CANCER” (NOVARTIS AG, priority 2017, published 2023).

System: incident cancers in post-myocardial infarction patients with hsCRP ≥2 mg/L
Assay: CANTOS trial: incident cancers, cancer mortality, canakinumab vs placebo
Format: in vivo, human

## canakinumab: high-affinity, fully human monoclonal antibody of the IgG1/k to interleukin-1β; INN number 8836
50 mg SC q 3 months
  Breast, incidence rate (number): 0.09(7) per 100 person years
  Central Nervous System, incidence rate (number): 0.04(3) per 100 person years
  Endocrine: Adrenal, incidence rate (number): 0 per 100 person years
  Endocrine: Thyroid, incidence rate (number): 0.01(1) per 100 person years
  Gastrointenstinal: Appendiceal, incidence rate (number): 0 per 100 person years
  Gastrointenstinal: Biliary, incidence rate (number): 0.03(2) per 100 person years
  Gastrointenstinal: Colorectal, incidence rate (number): 0.25(20) per 100 person years
  Gastrointenstinal: Esophageal, incidence rate (number): 0.08(6) per 100 person years
  Gastrointenstinal: Gastric, incidence rate (number): 0.04(3) per 100 person years
  Gastrointenstinal: Oral cavity/tongue, incidence rate (number): 0.03(2) per 100 person years
  Gastrointenstinal: Pancreatic, incidence rate (number): 0.04(3) per 100 person years
  Genitourinary: Bladder, incidence rate (number): 0.10(8) per 100 person years
  Genitourinary: Cervical, incidence rate (number): 0 per 100 person years
  Genitourinary: Endometrial/Uterine, incidence rate (number): 0.03(2) per 100 person years
  Genitourinary: Ovarian, incidence rate (number): 0 per 100 person years
  Genitourinary: Prostate, incidence rate (number): 0.19(15) per 100 person years
  Genitourinary: Testicular, incidence rate (number): 0 per 100 person years
  Hematopoetic: Leukemia, incidence rate (number): 0.01(1) per 100 person years
  Hematopoetic: Lymphoma, incidence rate (number): 0.04(3) per 100 person years
  Hematopoetic: Multiple myeloma, incidence rate (number): 0 per 100 person years
  Kidney, incidence rate (number): 0.13(10) per 100 person years
  Liver, incidence rate (number): 0.04(3) per 100 person years
  Lung Cancers: Adenocarcinoma or poorly differentiated large cell carcinoma or unspecified, incidence rate (number): 0.33 per 100 person years
  Lung Cancers: Pleural cancer, incidence rate (number): 0 per 100 person years
  Lung Cancers: Small cell lung cancer, incidence rate (number): 0.01 (1) per 100 person years
  Lung Cancers: Squamous cell lung carcinoma, incidence rate (number): 0.01 (1) per 100 person years
  Other cancer sites: Other, incidence rate (number): 0.08(6) per 100 person years
  Sarcoma / Bone, incidence rate (number): 0.01(1) per 100 person years
  Skin: Basal cell carcinoma, incidence rate (number): 0.28(22) per 100 person years
  Skin: Melanoma, incidence rate (number): 0.08(6) per 100 person years
  Skin: Other, incidence rate (number): 0 per 100 person years
  Skin: Squamous cell skin cancer, incidence rate (number): 0.10(8) per 100 person years
50 mg SC q 3 months, listed as Canakinumab
  Lung Cancers: Adenocarcinoma or poorly differentiated large cell carcinoma or unspecified, incidence rate (number): 0.33 (26) per 100 person years
150 mg SC q 3 months
  Breast, incidence rate (number): 0.05(4) per 100 person years
  Central Nervous System, incidence rate (number): 0.05(4) per 100 person years
  Endocrine: Adrenal, incidence rate (number): 0.01(1) per 100 person years
  Endocrine: Thyroid, incidence rate (number): 0.02(2) per 100 person years
  Gastrointenstinal: Appendiceal, incidence rate (number): 0 per 100 person years
  Gastrointenstinal: Biliary, incidence rate (number): 0.03(3) per 100 person years
  Gastrointenstinal: Colorectal, incidence rate (number): 0.19(16) per 100 person years
  Gastrointenstinal: Esophageal, incidence rate (number): 0.03(3) per 100 person years
  Gastrointenstinal: Gastric, incidence rate (number): 0.02(2) per 100 person years
  Gastrointenstinal: Oral cavity/tongue, incidence rate (number): 0.05(4) per 100 person years
  Gastrointenstinal: Pancreatic, incidence rate (number): 0.06(5) per 100 person years
  Genitourinary: Bladder, incidence rate (number): 0.08(7) per 100 person years
  Genitourinary: Cervical, incidence rate (number): 0.01(1) per 100 person years
  Genitourinary: Endometrial/Uterine, incidence rate (number): 0 per 100 person years
  Genitourinary: Ovarian, incidence rate (number): 0.01(1) per 100 person years
  Genitourinary: Prostate, incidence rate (number): 0.16(14) per 100 person years
  Genitourinary: Testicular, incidence rate (number): 0.01(1) per 100 person years
  Hematopoetic: Leukemia, incidence rate (number): 0.02(2) per 100 person years
  Hematopoetic: Lymphoma, incidence rate (number): 0.05(4) per 100 person years
  Hematopoetic: Multiple myeloma, incidence rate (number): 0 per 100 person years
  Kidney, incidence rate (number): 0.07(6) per 100 person years
  Liver, incidence rate (number): 0.06(5) per 100 person years
  Lung Cancers: Adenocarcinoma or poorly differentiated large cell carcinoma or unspecified, incidence rate (number): 0.27 per 100 person years
  Lung Cancers: Pleural cancer, incidence rate (number): 0 per 100 person years
  Lung Cancers: Small cell lung cancer, incidence rate (number): 0.01 (1) per 100 person years
  Lung Cancers: Squamous cell lung carcinoma, incidence rate (number): 0.02 (2) per 100 person years
  Other cancer sites: Other, incidence rate (number): 0.06(5) per 100 person years
  Sarcoma / Bone, incidence rate (number): 0 per 100 person years
  Skin: Basal cell carcinoma, incidence rate (number): 0.29(25) per 100 person years
  Skin: Melanoma, incidence rate (number): 0.06(5) per 100 person years
  Skin: Other, incidence rate (number): 0.06(5) per 100 person years
  Skin: Squamous cell skin cancer, incidence rate (number): 0.15(13) per 100 person years
150 mg SC q 3 months, listed as Canakinumab
  Lung Cancers: Adenocarcinoma or poorly differentiated large cell carcinoma or unspecified, incidence rate (number): 0.27 (23) per 100 person years
300 mg SC q 3 months
  Breast, incidence rate (number): 0.06(5) per 100 person years
